The text below walks through data of patent publication US20230355625A1, “METHODS OF TREATMENT” (INTRA-CELLULAR THERAPIES, INC., priority 2019, published 2023).

The test system of one data set is healthy humans. The note with it: cited from earlier work; for fear extinction learning: humans.
In the next data set the test system is animal models. The note with it: cited from earlier work.
The conditions of data set [1]: in vivo; cited from earlier work.
The subject of data set [2] is healthy human individuals. Briefly: BOLD-fMRI during the extinction phase of a fear conditioning task. It is filed as in vivo. The note with it: single oral doses of 1 mg or 10 mg vs placebo; FIG. 1. As for the experimental part: A randomized, double-blind, placebo-controlled, within-subjects study was carried out with healthy human individuals to determine whether the PDE1 inhibitors according to the present disclosure induce changes in blood oxygen level dependent functional magnetic resonance imaging (BOLD-fMRI) signals in the dorsal anterior insula (dAI) during the extinction phase of a fear conditioning task. To test these effects, Compound 1 was administered to healthy human patients. Compound 1 (ITI-214) is shown below:
The insula is a small brain region that is essential for the mind-body connection, where body sensations are translated into emotion. Anterior insula reactivity has been associated with anticipating significant events, and increased anterior insula activity has been associated with anxiety. Conditioning, including fear conditioning and extinction, is a brain activity during learning. […]
Patients were administered single oral doses of placebo, or doses of Compound 1 at 1 mg or 10 mg. Brain activity was then measured during BOLD-fMRI scanning at 3 Tesla. […] Region-of-interest (ROI) analyses for the dAI, IFG, and other prespecified regions were computed using linear mixed models in R. The brain's response is measured in each subject by fMRI scans, which is summarized in FIG. 1.

The next data set has as its system preclinical models. Description: preclinical models of cognitive performance. Format: in vivo.
In data set [3] the test system is healthy human individuals. Briefly: BOLD-fMRI during a stop signal task. Format: in vivo. As for the experimental part: The Stop Signal task is a way to measure behavioral and neural responses to inhibitory processing.
Patients were again administered single oral doses of placebo, Compound 1 at 1 mg or 10 mg. Brain activity was then measured during BOLD-fMRI scanning at 3 Tesla. In this study, participants are presented with a visual and/or audio cue and two buttons. The subjects are instructed to press the left button as quickly as possible when an ‘X’ appears on a screen and the right button when an ‘O’ appears. Participants also are instructed not to press either button when they hear a tone, which constitute the Stop trials. There are two different kinds of Stop trials presented during the task, namely easy and hard trials. Easy trials consist of the tone cue being presented simulataneously with the visual ‘X’ or ‘O’ making it easier to suppress a response. Hard trials consist of the tone being presented after a brief delay, making it harder to process the tone and suppress a response.
This consistency provides confidence in the findings.

As for `COC(=O)C(c1ccccc1)C1CCCCN1` (stereo not drawn) [methylphenidate], in the data set on healthy humans (healthy humans), the “effect on the bilateral anterior insula during a fear extinction task” value is “attenuating effect”. Further, in the data set with healthy humans, the fear extinction learning result is “enhancement of fear extinction learning”. Besides, the “extinction of contextual fear (cognitive function)” value with animal models is reported as “enhanced extinction of contextual fear”. Also, in data set [1], the “activation in the frontal gyrus during a stop signal task” value is “increase activation” and the “inhibitory performance during a stop signal task” value is reported as “improve inhibitory performance”.

As to `NC(=O)C[S+]([O-])C(c1ccccc1)c1ccccc1` (stereo not drawn) [modafinil], the fear extinction learning entry with healthy humans was “enhancement of fear extinction learning”. Moreover, the “extinction of contextual fear (cognitive function)” value in the data set with animal models was “enhanced extinction of contextual fear”. Further, in data set [1], the “activation in the frontal gyrus during a stop signal task” value is reported as “increase activation” and the “inhibitory performance during a stop signal task” value is on record as “improve inhibitory performance”.

In the case of `CN1C(=O)c2c(nn(Cc3ccc(-c4cccc(F)n4)cc3)c2Nc2ccccc2)N2C1=N[C@@H]1CCC[C@@H]12` [Compound 1], the “insula activity (dorsal anterior insula BOLD-fMRI signal) during fear extinction” value in data set [2] is listed as “slightly attenuated”. Also, in the data set with preclinical models, the cognitive performance entry was “improved cognitive performance” and the psychomotor hyperactivity entry is “without psychomotor hyperactivity”. For the same compound, in data set [3] (FIG. 3), the “activity in the dorsolateral prefrontal cortex during stop signal task” value is “increased activity”. Moreover, the “activity in the dorsal anterior cingulate cortex during stop signal task” value in data set [3] (FIG. 4) is on record as “increased activity”. For the same compound, the “activity in the anterior insula during stop signal task” value in data set [3] (FIG. 5) is listed as “increased activity”. For the same compound, the “activation in the frontal gyrus” value in data set [3] (human, 1 mg where stated) is given as “increased activation”. Moreover, in data set [3] (single oral dose 1 mg, FIG. 2), the “activation in the inferior frontal gyrus during correctly inhibited Stop trials, easy trials (correcteasy)” value is listed as “significantly increased activation” and the “activation in the inferior frontal gyrus during correctly inhibited Stop trials, hard trials (correcthard)” value is “significantly increased activation”.
